Read-outs that look alike come from different tables or passages of the source.
How the values were obtained:
TEM-1 = TEM-1 (Escherichia coli, UniProt P62593); details: read-out: Km (μM) difluoro sub., 5 nM TEM-1, PBS, pH 7.2
Procedure: For determination of Km of the β-lactamase substrate with TEM-1, substrates ranging from 40 μg/mL to 5 μg/mL were added to microplate wells with a constant concentration of 5 nM TEM-1. The plate was read for the first 5 minutes with a Tecan Safire fluorescence plate reader using a constant gain setting. Relative Fluorescence Units (RFUs) were converted into moles of product produced using a standard curve of the substrate's fluorescent product. This standard curve was produced by adding an excess of TEM-1 (0.5 μM) to an equal volume of substrate, and incubating for more than 1 hour. Substrate standard concentrations ranged from ˜16 nM to 2 μM. It was assumed the reaction went to completion. All enzyme and substrate solutions were prepared in PBS, pH 7.2.

TEM-1 β-lactamase = TEM-1 β-lactamase (Escherichia coli, UniProt P62593); test: Fluorescence from precipitating β-lactamase substrate in 96-well microplate; assay type: biochemical
Procedure: This was diluted 2-fold in methanol to give a working solution of 1 mM. 20 μL of 250 nM TEM-1 β-lactamase was added to the wells of a 96-well microplate. Appropriate volumes of substrate were added to the wells to give final concentrations of 0, 30, 50, 60, 75, 100, 140, 160 and 200 uM after diluting to 100 μL with 100 mM phosphate, 150 mM NaCl (pH7.1). The final β-lactamase concentration was 50 nM. Samples were excited @ 360 nm and fluorescence was measured @ 450 nm, signal was read @ 5, 13, 19, 26, 35, 45, 51 and 65 minutes. Maximum signal was attained after 5 minutes.

[1] = biological target: β-lactamase-conjugated secondary antibody (Escherichia coli, UniProt P62593); test: Fluorogenic sandwich ELISA for prostate specific antigen (PSA); details: 1 μg substrate; fluorogenic assay
Procedure: For the fluorogenic assay, 100 μl/well of a 10 μg/ml solution of anti-prostate specific antigen (PSA) antibody was applied to microplate wells. After incubation and washes, a dilution series of purified PSA was applied, and detection was achieved using 100 μl of a 10 μg/ml of an anti-PSA primary antibody and 100 μl of a 10 μg/ml of a β-lactamase-conjugated secondary antibody in the presence of 1 μg Compound 108 substrate (with appropriate washes between steps). The Z-statistic^1 gives a lower limit of detection of PSA in this assay of 16 pg/ml. For the colorimetric assay, a commercially available kit for the detection of PSA in human serum or plasma was used according to the manufacturers instructions. The assay was performed using the PSA standards provided in the kit. […] The reaction was stopped after 15 minutes using the stop solution provided in the kit and the absorbance was read at 450 nm. […]
Optimal concentrations for use in ELISA-format assays was determined experimentally using a model sandwich ELISA to detect human Prostate Specific Antigen (PSA). […] The PSA standards were detected with a polyclonal rabbit anti-PSA antibody, then a secondary conjugate of goat anti-rabbit TEM-1. Plates were developed by addition of a β-lactamase substrate solution to drained wells, then measurement of fluorescence on the Tecan Safire fluorescence plate reader.

[2] = pH range, hydrolysis rate: background fluorescence of substrate in buffers without enzyme; assay type: physicochemical; details: for increase in fluorescence due to hydrolysis (percentage of maximum fluorescence): 1 μg/mL, over 250 min; for time to complete hydrolysis: assumes a constant rate of hydrolysis
Procedure: Compound 108 was prepared at a concentration of 1 μg/ml in three different buffers: MES at pH 5.5, PBS at pH 7.2, and Tris at pH 8.0. The substrate solutions were applied to the wells of a microplate, the plate was protected from light, and fluorescence values were gathered at time points from 10-250 minutes. […] Maximum signal was determined by the fluorescence value obtained when 10 μl of a 100 μg/ml solution of β-lactamase was added to control wells. Each point is the mean of 12 replicates. See, Example 32.
Solutions of Compound 108 (1 μg/mL) were prepared in pH 5.5 MES, pH 7.2 PBS, and pH 8.0 Tris-HCl, then added to 16 wells of a 96-well plate. For each pH, high concentrations of TEM-1 were added to 4 wells to obtain a maximum signal (assuming complete cleavage of all substrate). The entire plate was read every 15 min. for 250 min. All fluorescent signals were averaged, then normalized to a percentage of the maximum fluorescence. […] The Tris-HCl samples increased in fluorescence about 7.5% over 250 min., corresponding to complete hydrolysis after about 55 hrs. […] These estimations assume a constant rate of hydrolysis.

TEM-1 β-lactamase, sequence (P62593 24-286 limits assumed): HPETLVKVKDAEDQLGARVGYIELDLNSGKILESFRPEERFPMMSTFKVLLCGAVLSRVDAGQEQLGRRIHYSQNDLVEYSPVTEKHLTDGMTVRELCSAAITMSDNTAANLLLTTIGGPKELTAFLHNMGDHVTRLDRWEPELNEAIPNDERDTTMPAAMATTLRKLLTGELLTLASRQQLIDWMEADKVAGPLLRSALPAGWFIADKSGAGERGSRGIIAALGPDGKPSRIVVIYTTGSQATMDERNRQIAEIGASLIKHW
TEM-1, sequence (P62593 24-286 limits assumed): as above
β-lactamase-conjugated secondary antibody, sequence (P62593 24-286 limits assumed): as above

O=C(Cc1cccs1)NC1C(=O)N2C(C(=O)O)=C(C=CCOc3cc4c(cc3F)C3(OC(=O)c5ccccc53)c3cc(F)c(OCC=CC5=C(C(=O)O)N6C(=O)C(NC(=O)Cc7cccs7)C6[S+]([O-])C5)cc3O4)C[S+]([O-])C12 (stereo not drawn) [Compound 108] showed a Km (TEM-1; Lineweaver-Burk plot) of 40 µM and a Km (TEM-1; Scatchard plot) of 36 µM.
In the case of O=C(Cc1cccs1)NC1C(=O)N2C(C(=O)O)=C(COc3ccccc3-c3nc4ccccc4c(=O)[nH]3)C[S+]([O-])C12 (stereo not drawn) [Compound 38], the “fluorescence enhancement upon reaction w/β-lactamase” value (TEM-1 β-lactamase; 50 nM β-lactamase, excitation 360 nm, emission 450 nm, pH 7.1) is reported as ≥ 90 fold, the “time at which maximum signal was attained” value (TEM-1 β-lactamase; 50 nM β-lactamase, pH 7.1) is reported as 5 min and the “reaction with β-lactamase in the presence of 40% methanol” value (TEM-1 β-lactamase; 40% methanol) is reported as “no reaction occurred”. For the same compound, the “signal at high concentrations of substrate” value (TEM-1 β-lactamase; substrate up to 200 uM, presumably due to decreased solubility) was “signal dropped”.
With O=C(Cc1cccs1)NC1C(=O)N2C(C(=O)O)=C(/C=C/COc3cc4c(cc3F)C3(OC(=O)c5ccccc53)c3cc(F)c(OC/C=C/C5=C(C(=O)O)N6C(=O)C(NC(=O)Cc7cccs7)C6[S+]([O-])C5)cc3O4)C[S+]([O-])C12 (stereo not drawn) [Compound 108] the “lower limit of detection of PSA (Z-statistic)” value [1] was 16 pg/mL, the “increase in fluorescence due to hydrolysis (percentage of maximum fluorescence)” value ([2]; pH 5.5 MES and pH 7.2 PBS) was “about 3.25%” and the “time to complete hydrolysis” value ([2]; pH 5.5 MES and pH 7.2 PBS) was “about 128 hrs”. The “hydrolysis rate in pH 8.0 Tris-HCl relative to pH 5.5 MES and pH 7.2 PBS” value ([2]; pH 8.0 Tris-HCl vs MES/PBS) was “about double”, the “increase in fluorescence due to hydrolysis (percentage of maximum fluorescence)” value ([2]; pH 8.0 Tris-HCl) was “about 7.5%” and the “time to complete hydrolysis” value ([2]; pH 8.0 Tris-HCl) was “about 55 hrs”.
